Common to all, as to assay type: biochemical
One assay has as its target T1, KDM4C (JMJD2C) (Homo sapiens, UniProt Q9H3R0).
T1 sequence (Q9H3R0 1-349): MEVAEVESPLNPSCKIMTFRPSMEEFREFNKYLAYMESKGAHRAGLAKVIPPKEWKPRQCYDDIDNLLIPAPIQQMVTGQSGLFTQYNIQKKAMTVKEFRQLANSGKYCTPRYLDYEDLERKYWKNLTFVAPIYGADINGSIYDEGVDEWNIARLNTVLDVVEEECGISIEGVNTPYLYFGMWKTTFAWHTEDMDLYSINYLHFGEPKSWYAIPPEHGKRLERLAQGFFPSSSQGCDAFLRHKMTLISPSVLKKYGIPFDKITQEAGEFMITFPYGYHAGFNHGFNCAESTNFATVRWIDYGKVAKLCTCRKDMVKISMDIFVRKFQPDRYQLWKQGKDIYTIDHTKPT
The assay is described as follows: Histone lysine demethylase AlphaLISA assay, KDM4C. The settings on record: read-out: KDM4C HDME Inhibition IC50. Summed up: (§1)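 AlphaLISA demethylation readout: enzyme preincubated 10 min, then 10 min with compounds in 3% DMSO buffer, before biotinylated methyl-lysine histone peptide substrate with 25 μM L-Asc and 10 μM α-KG, room temperature. Acceptor beads then streptavidin donor beads added, dark incubation, plates read.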
For orientation: Alpha assays give light when donor and acceptor beads are brought close together.

In a further assay the target is T2, KDM5C (JARID1C) (Homo sapiens, UniProt P41229).
T2 construct: 2-1560; purchased BPS; host or cells: Bac (baculovirus system)
T2 sequence (P41229 2-1560): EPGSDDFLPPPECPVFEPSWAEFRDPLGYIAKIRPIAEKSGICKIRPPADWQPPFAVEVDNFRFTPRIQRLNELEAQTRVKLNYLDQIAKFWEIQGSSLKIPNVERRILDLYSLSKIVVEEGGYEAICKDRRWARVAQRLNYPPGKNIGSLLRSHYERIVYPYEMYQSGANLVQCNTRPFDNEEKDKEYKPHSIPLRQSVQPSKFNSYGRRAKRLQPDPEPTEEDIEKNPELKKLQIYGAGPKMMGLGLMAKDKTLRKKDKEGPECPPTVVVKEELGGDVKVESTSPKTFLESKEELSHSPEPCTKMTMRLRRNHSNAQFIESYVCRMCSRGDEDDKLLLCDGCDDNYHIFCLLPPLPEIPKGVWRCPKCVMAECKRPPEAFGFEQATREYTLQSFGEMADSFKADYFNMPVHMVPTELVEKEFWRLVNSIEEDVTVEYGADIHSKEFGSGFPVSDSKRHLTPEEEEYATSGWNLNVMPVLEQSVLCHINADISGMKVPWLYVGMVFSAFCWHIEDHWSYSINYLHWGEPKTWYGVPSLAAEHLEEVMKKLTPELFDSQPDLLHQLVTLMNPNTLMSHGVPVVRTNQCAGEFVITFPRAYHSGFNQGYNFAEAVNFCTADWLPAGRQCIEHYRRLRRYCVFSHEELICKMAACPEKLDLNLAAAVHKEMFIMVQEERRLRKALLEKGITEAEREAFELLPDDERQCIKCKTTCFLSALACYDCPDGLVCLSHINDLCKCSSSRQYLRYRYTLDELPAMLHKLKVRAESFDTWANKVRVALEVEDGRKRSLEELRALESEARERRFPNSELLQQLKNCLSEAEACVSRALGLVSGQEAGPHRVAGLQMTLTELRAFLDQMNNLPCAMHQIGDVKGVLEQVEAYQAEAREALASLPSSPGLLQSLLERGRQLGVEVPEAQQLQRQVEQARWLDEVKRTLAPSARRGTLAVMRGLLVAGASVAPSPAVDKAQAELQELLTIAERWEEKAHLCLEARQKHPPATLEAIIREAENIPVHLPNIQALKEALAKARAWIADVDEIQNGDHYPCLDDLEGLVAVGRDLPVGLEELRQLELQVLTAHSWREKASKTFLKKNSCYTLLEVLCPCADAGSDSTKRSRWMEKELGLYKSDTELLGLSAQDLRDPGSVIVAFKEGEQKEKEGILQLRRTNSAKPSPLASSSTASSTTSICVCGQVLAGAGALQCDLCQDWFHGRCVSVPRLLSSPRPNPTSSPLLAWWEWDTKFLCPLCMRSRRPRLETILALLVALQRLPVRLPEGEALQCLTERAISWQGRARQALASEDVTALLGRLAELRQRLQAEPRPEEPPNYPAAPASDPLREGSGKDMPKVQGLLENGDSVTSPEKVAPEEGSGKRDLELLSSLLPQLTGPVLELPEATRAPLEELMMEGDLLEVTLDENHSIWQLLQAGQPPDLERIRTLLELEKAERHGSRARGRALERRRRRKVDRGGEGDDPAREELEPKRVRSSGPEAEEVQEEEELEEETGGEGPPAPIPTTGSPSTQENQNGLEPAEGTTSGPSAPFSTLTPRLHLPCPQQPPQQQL
Briefly: Histone lysine demethylase AlphaLISA assay, KDM5C. The settings on record: read-out: KDM5C HDME Inhibition IC50. As for the experimental part:
(§2) Assays are performed analogously to the protocol described by PerkinElmer (Roy et al. PerkinElmer Technical Note: AlphaLISA #12, April 2011)
(§3) Enzymes are dissolved in enzyme buffer and incubated for 10 min before being added to 3% DMSO solutions of compounds in enzyme buffer. Incubated for another 10 minutes, before substrate solution is added and the reaction mixture is incubated at room temperature. 10 μL acceptor beads, suspended in Epigenetic Buffer (Perkin Elmer AL008) from stock, are added and the suspension is incubated in the dark at room temperature, before a suspension of streptavidin donor beads (Perkin Elmer 6760002) in Epigenetic Buffer is added. After incubation at room temperature in the dark the plates are read. […]
H3K4M3B: H-ART(Kme3)QTARKSTGGKAPRKQLA-NH-Biotin (Caslo, Denmark) […]
(§4) Substrate Solution: Substrate, 25 μM L-Asc, and 10 μM α-KG in Buffer A.

The target of the next assay is T3, KDM5B (PLU-1) (Homo sapiens, UniProt Q9UGL1).
T3 sequence (Q9UGL1 1-809): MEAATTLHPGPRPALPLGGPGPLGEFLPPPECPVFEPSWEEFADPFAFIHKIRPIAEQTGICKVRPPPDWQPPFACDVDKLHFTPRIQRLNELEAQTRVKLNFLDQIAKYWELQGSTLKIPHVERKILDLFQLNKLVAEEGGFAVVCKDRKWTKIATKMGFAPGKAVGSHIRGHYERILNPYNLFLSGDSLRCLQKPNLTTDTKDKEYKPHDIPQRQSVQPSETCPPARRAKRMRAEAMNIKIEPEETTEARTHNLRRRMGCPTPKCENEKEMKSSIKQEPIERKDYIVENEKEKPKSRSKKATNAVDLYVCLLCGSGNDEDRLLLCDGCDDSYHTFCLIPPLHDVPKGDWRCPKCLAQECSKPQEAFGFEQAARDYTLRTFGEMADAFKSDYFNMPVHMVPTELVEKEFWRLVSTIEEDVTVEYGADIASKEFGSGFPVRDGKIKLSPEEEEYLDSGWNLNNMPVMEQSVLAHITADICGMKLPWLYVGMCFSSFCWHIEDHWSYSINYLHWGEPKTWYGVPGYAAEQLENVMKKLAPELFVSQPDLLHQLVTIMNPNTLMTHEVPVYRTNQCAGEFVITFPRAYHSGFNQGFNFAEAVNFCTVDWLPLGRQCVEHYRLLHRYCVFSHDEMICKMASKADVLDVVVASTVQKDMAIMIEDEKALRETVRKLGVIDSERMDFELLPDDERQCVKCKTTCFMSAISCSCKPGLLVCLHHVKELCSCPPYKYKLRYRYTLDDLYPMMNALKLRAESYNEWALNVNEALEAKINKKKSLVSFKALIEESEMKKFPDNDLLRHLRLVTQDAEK
Briefly: Histone lysine demethylase AlphaLISA assay, KDM5B. To be noted: read-out: KDM5B HDME Inhibition IC50. Put shortly:
as §1

A further assay deals with T4, KDM6B (JMJD3) (Homo sapiens, UniProt O15054).
T4 construct: 1043-end; purchased BPS; host or cells: Bac (baculovirus system)
T4 sequence (O15054 1043-1682 isoform O15054-1 limits assumed): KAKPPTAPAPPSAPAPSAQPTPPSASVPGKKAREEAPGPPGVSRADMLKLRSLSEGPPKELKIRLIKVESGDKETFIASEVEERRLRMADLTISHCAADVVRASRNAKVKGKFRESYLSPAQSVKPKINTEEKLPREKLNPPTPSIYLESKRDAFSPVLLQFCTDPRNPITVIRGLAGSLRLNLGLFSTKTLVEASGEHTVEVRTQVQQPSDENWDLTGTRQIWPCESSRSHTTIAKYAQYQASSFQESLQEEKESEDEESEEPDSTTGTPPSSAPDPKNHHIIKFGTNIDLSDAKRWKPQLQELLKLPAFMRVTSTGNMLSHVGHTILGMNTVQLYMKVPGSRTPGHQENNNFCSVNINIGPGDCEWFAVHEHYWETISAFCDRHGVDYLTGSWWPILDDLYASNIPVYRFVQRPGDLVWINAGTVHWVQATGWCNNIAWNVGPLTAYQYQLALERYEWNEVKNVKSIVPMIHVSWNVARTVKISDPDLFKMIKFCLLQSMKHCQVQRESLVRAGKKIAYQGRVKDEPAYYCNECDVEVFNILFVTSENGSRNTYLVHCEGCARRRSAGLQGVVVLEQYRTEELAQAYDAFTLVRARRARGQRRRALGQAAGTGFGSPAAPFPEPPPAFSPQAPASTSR
Briefly: Histone lysine demethylase AlphaLISA assay, KDM6B. The settings on record: read-out: KDM6B HDME Inhibition IC50. As for the experimental part: as §2, §3
BK27M3: Biotin-ATKAAR(Kme3)SAPATGGVKKPHRY-NH2? (Caslo, Denmark) […]
as §4

The target in another assay is T5, KDM7 (PHF8) (Homo sapiens, UniProt Q9UPP1).
T5 construct: KDM7 (PHF8); BRIC; 1-1322; Bac
T5 sequence (Q9UPP1 37-440 limits assumed): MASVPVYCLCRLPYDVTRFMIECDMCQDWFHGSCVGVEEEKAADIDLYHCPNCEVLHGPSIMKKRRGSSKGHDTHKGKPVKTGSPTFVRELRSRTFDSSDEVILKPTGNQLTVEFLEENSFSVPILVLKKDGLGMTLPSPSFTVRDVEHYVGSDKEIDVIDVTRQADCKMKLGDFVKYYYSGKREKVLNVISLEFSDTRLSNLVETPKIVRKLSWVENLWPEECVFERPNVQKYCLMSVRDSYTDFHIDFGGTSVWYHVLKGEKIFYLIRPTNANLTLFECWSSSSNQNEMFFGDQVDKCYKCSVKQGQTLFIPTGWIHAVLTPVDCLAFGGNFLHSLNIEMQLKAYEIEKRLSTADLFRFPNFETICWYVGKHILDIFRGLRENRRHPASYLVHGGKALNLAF
Briefly: Histone lysine demethylase AlphaLISA assay, KDM7. To be noted: read-out: PHF8 HDME Inhibition IC50. As to the method:
as §2, §3
BK9M2: Biotin-ARTKQTAR(KMe2)STGGKAPRKQ-NH2 (AnaSpec 64359)
BK9M1: Biotin-ARTKQTAR(KMe1)STGGKAPRKQ-NH2 (AnaSpec 64358) […]
as §4

In another assay the target is T6, KDM4A (JMJD2A) (Homo sapiens, UniProt O75164).
T6 construct: 1-350; purchased BPS Bioscience, US; host or cells: E. coli
T6 sequence (O75164 1-350): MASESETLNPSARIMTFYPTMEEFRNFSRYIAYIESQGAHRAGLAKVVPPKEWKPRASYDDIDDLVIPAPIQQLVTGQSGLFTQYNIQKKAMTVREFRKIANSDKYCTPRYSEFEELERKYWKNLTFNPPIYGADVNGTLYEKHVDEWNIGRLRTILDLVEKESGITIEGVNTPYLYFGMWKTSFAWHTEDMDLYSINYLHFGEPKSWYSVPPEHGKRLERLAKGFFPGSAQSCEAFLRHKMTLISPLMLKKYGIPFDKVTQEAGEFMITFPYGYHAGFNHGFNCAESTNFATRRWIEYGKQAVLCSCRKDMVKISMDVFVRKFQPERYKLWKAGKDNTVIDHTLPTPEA
Briefly: Histone lysine demethylase AlphaLISA assay, KDM4A. To be noted: read-out: KDM4A HDME Inhibition IC50. As to the method:
as §2
Enzymes are dissolved in enzyme buffer and incubated for 10 min before being added to 3% DMSO solutions of compounds in enzyme buffer. Incubated for another 10 minutes, before substrate solution is added and the reaction mixture is incubated at room temperature. 10 μL acceptor beads, suspended in Epigenetic Buffer (Perkin Elmer AL008) from stock, are added and the suspension is incubated in the dark at room temperature, before a suspension of streptavidin donor beads (Perkin Elmer 6760002) in Epigenetic Buffer is added. After incubation at room temperature in the dark the plates are read.
BK9M3: Biotin-ARTKQTAR(KMe3)STGGKAPRKQ-NH2 (Caslo, Denmark) […]
as §4

Each structure is given as a SMILES string.

What is called IC50 is the concentration needed to halve the response being measured. Regarding `CCN1CCCC1CNC(=O)CNCc1cc(C=O)ccn1` (stereo not drawn) [Compound 104, N-[(1-ethylpyrrolidin-2-yl)methyl]-2-{[(4-formylpyridin-2-yl)methyl]amino}-acetamide], the IC50 is 250 to 2500 nM on KDM4C (JMJD2C); less than 250 nM on KDM5C (JARID1C); less than 250 nM on KDM5B (PLU-1); greater than 2500 nM on KDM6B (JMJD3); 250 to 2500 nM at KDM7 (PHF8).

In the case of `CN(C)C(=O)CNCc1cc(/C=N\C2CC2)ccn1` [Compound 33], the concentration for half-maximal inhibition (IC50) on KDM4A (JMJD2A) was less than 250 nM; at KDM4C (JMJD2C), less than 250 nM; on KDM5C (JARID1C), less than 250 nM; at KDM5B (PLU-1), less than 250 nM; on KDM6B (JMJD3), greater than 2500 nM; on KDM7 (PHF8), greater than 2500 nM.

Turning to `CCN(CC)CCCCNC(=O)CNCc1cc(/C=N/C2CC2)ccn1` [Compound 48, 2-[({4-[N-cyclopropyl-carboximidoyl]pyridin-2-yl}methyl)amino]-N-[4-(diethylamino)-butyl]acetamide], the IC50 at KDM4A (JMJD2A) is less than 250 nM; on KDM4C (JMJD2C), 250 to 2500 nM; at KDM5C (JARID1C), less than 250 nM; at KDM5B (PLU-1), less than 250 nM; on KDM6B (JMJD3), greater than 2500 nM; on KDM7 (PHF8), less than 250 nM.

Take `CN(C)C/C=C/CNCc1cc(C=O)ccn1` [Compound 98, 2-({[(2E)-4-(dimethylamino)but-2-en-1-yl]amino}-methyl)pyridine-4-carbaldehyde]: the IC50 is greater than 2500 nM at KDM4A (JMJD2A); 250 to 2500 nM at KDM4C (JMJD2C); less than 250 nM on KDM5C (JARID1C); less than 250 nM at KDM5B (PLU-1); greater than 2500 nM at KDM6B (JMJD3); greater than 2500 nM at KDM7 (PHF8).

As for `CCSCCNCc1cc(/C=N/C2CC2)ccn1` [Compound 39, N-{[2-({[2-(ethylsulfanyl)-ethyl]amino}methyl)pyridin-4-yl]methylidene}-cyclopropanamine], the IC50 on KDM4A (JMJD2A) is 250 to 2500 nM; at KDM4C (JMJD2C), greater than 2500 nM; on KDM5C (JARID1C), less than 250 nM; at KDM5B (PLU-1), 250 to 2500 nM; on KDM6B (JMJD3), greater than 2500 nM; on KDM7 (PHF8), less than 250 nM.

With `CCN(CC)CCCCNCc1cc(/C=N\CCC2CCCCC2)ccn1` [Compound 67, (2-cyclohexylethyl)-({[2-({[4-(diethylamino)-butyl]amino}methyl)pyridin-4-yl]methylidene})-amine], the IC50 on KDM4A (JMJD2A) is greater than 2500 nM; on KDM4C (JMJD2C), 250 to 2500 nM; on KDM5C (JARID1C), less than 250 nM; at KDM5B (PLU-1), less than 250 nM; at KDM7 (PHF8) it was greater than 2500 nM.

Consider `CN(CCCn1cccn1)C(=O)CNCc1cc(/C=N/C2CC2)ccn1` [Compound 52, 2-[({4-[N-cyclopropyl-carboximidoyl]-pyridin-2-yl}methyl)amino]-N-methyl-N-[3-(1H-pyrazol-1-yl)propyl]acetamide], for which the IC50 at KDM4A (JMJD2A) is 250 to 2500 nM; at KDM4C (JMJD2C) it was 250 to 2500 nM; on KDM5C (JARID1C), less than 250 nM; on KDM5B (PLU-1), less than 250 nM; at KDM6B (JMJD3), greater than 2500 nM.

Consider `O=Cc1ccnc(CNCCCN2CCCC2)c1` [Compound 111, 2-({[3-(pyrrolidin-1-yl)propyl]amino}-methyl)pyridine-4-carbaldehyde], for which the IC50 at KDM4C (JMJD2C) was greater than 2500 nM; at KDM5C (JARID1C), less than 250 nM; on KDM5B (PLU-1) it was less than 250 nM; on KDM6B (JMJD3) it was greater than 2500 nM; on KDM7 (PHF8) it was greater than 2500 nM.

Turning to `CCN(CC)CCCCNC(=O)CNCc1cc(C=O)ccn1` [Compound 112, N-[4-(diethylamino)-butyl]-2-{[(4-formylpyridin-2-yl)methyl]amino}-acetamide], the IC50 is less than 250 nM on KDM4A (JMJD2A); 250 to 2500 nM on KDM4C (JMJD2C); less than 250 nM on KDM5C (JARID1C); greater than 2500 nM at KDM6B (JMJD3); less than 250 nM at KDM7 (PHF8).

`CN1CCC(CNCc2cc(C=O)ccn2)CC1` [Compound 100, 2-({[(1-methyl-piperidin-4-yl)methyl]amino}-methyl)pyridine-4-carbaldehyde]: the IC50 on KDM4C (JMJD2C) was greater than 2500 nM; at KDM5C (JARID1C), less than 250 nM; on KDM5B (PLU-1), less than 250 nM; on KDM6B (JMJD3), greater than 2500 nM; at KDM7 (PHF8), greater than 2500 nM.

(Values after patent US9650339B2, “Inhibitors of histone demethylases” (Gilead Sciences, Inc., priority 2013, dated 2017).)
